Measurements: article PMC7076710, “Synthesis, Identification, and Structure–Activity Relationship Analysis of GATA4 and NKX2-5 Protein–Protein Interaction Modulators” (Journal of Medicinal Chemistry, 2019)

Experiments:
[1] = target: T1, GATA4 transcriptional activity (Mus musculus, UniProt Q08369); experiment: GATA4 luciferase reporter assay (tandem GATA-site reporter, COS-1 cells); type: cell-based; conditions: for activity at 3 µM: COS-1; for GATA4 (% of control) Mean ± SD: 10 μM, COS-1 cells, 24 h
T1 construct: expressed in transfected cells; host or cells: COS-1
T1 sequence (Q08369 whole entry): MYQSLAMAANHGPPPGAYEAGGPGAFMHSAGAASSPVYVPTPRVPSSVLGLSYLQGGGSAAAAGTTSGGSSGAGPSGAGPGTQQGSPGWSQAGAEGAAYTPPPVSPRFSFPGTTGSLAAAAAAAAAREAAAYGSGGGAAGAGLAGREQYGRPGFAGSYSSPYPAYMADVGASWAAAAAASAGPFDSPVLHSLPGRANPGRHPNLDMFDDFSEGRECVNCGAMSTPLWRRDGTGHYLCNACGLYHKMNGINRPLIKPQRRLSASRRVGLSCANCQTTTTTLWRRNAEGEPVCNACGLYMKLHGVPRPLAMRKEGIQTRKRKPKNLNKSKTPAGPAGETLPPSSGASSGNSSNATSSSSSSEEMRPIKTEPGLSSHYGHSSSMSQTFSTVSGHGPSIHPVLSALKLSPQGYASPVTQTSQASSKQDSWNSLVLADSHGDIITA

[2] = system: rat BNP promoter activity in neonatal rat ventricular myocytes; experiment: BNP promoter luciferase reporter in neonatal cardiomyocytes with or without endothelin-1; type: cell-based; conditions: neonatal cardiomyocytes, 24 h
Experimental: Five compounds (GATA4–NKX2-5 synergy inhibitors 1, 61, and 65; the synergy activator 2; and the NKX2-5 activity inhibitor 47c) were selected for studies in neonatal cardiomyocytes, which were treated with endothelin-1 (ET-1), a well-established hypertrophic agonist that activates the gene expression of both ANP and BNP (Figure 4). The myocytes were transfected with construct containing −534/+4 proximal region of rat BNP promoter with GATA4 and NKX2-5 binding sites in front of luciferase before exposure to compounds and ET-1, which was added 1 h after the compounds.
Figure 4 Effects of the compounds 1, 2, 47c, 61, and 65 on BNP gene activation in cardiomyocytes. Neonatal cardiomyocytes were transfected with rat BNP luciferase reporter for 24 h. The cells were exposed to compounds and 1 h later to endothelin-1 (ET-1) for 24 h. The results are expressed as +SD (n = 3 or 9 for DMSO groups). ***P < 0.001 vs DMSO; **P < 0.01 vs DMSO; *P < 0.05 vs DMSO (one-way ANOVA followed by Tukey’s HSD or Welch ANOVA followed by Games–Howell); ^###P < 0.001 vs DMSO, no stimulus (independent samples Student’s t test).
The plasmids expressing mouse GATA4 protein, pMT2-GATA4, and empty pMT2 were gifts from D. B. Wilson (Department of Pediatrics, St. Louis Children’s Hospital, St. Louis, MO).[44] The plasmids expressing mouse NKX2-5 protein, pMT2-NKX2-5, have been described earlier.[28] The luciferase reporter plasmid used in GATA4–NKX2-5 transcriptional synergy assay and NKX transcriptional assay, pGL3-3xHA, contains three high affinity binding sites for NKX2-5.[28] The luciferase reporter plasmid used in GATA transcriptional assay, NP-112, contains tandem GATA-sites and minimal promoter of rat brain natriuretic peptide (BNP) gene.[45] The pGL3-BNP luciferase reporter containing −534/+4 bp rat BNP proximal promoter described previously was used in hypertrophy assay.[46]
The neonatal rat ventricular myocytes were isolated from 2- to 3-day-old Wistar rats, as described earlier.[29],[32] Rat pups were acquired from the experimental animal facility of the University of Helsinki with an internal use license (KEK17-012). Animals were housed in standard conditions, and their handling and all procedures were carried out in accordance with University of Helsinki institutional guidelines, which conform to the National Research Council (U.S.) Guide for the Care and Use of Laboratory Animals.[47] The cells were seeded at 50 000 cells/well in Isoplate-96 microplates (PerkinElmer, Turku, Finland) and cultured for 18–20 h with Dulbecco’s modified Eagle medium (DMEM)/F12 culture medium containing 2.5 mM L-glutamine, supplemented with 100 IU/mL penicillin–streptomycin and 10% fetal bovine serum (all from Gibco, Thermo Scientific). Transfections were carried out for 24 h in serum free media (CSFM; DMEM/F12, 2.5 mg/mL bovine serum albumin, 1 μM insulin, 2.5 mM L-glutamine, 32 nM selenium, 2.8 mM sodium pyruvate, 5.64 μg/mL transferrin, 1 nM T3, and 100 IU/mL PS) by using 100 ng of pGL3-BNP luciferase plasmid per well in a 1:3 ratio of DNA/transfection reagent (Fugene 6, Promega). […] After 24 h, the luminescence was measured as above.
Results from cardiomyocyte experiments are expressed as mean + SD from at least three independent experiments. Data were analyzed using IBM SPSS Statistics 24 software. […] Significance between ET-1 and DMSO samples was analyzed with independent samples Student’s t test. […]

[3] = 3 µM, luciferase reporter activity relative to control
[4] = 3 µM, luciferase reporter activity, % of control

For CCN(CC)c1ccc(NC(=O)c2cnsc2)cc1 [Compound 47s], which activity at 3 µM [1, 3] is on record?
Its activity at 3 µM is 128%.

Which “GATA4 (% of control) Mean ± SD” value [1] does the source give for COc1ccc(-c2cc(NC(=O)c3ccc(C(C)(C)C)cc3)n[nH]2)cc1 [Compound 72] here?
The value was 40 % of control.

And the activity at 3 µM [1, 3]?
The activity at 3 µM was 70.5%.

Cc1onc(-c2ccccc2)c1COc1ccc(C(=O)OCCC#N)cc1 [Compound 35a, 2-Cyanoethyl 4-[(5-Methyl-3-phenylisoxazol-4-yl)methoxy]benzoate] was tested. Which activity at 3 µM [1, 3] did it give?
The activity at 3 µM was 46.9%.

How did the “effect on BNP promoter activity in cardiomyocytes (in words)” value [2] turn out when Cc1onc(-c2ccccc2)c1C(=O)N(C1=NC(C)CS1)c1ccc(Cl)cc1 (stereo not drawn) [Compound 2] was run?
Its value is “increased BNP promoter activity”.

What about the activity at 3 µM [1, 4] of the same molecule?
Its activity at 3 µM is 145%.

With CCC(=O)N(Cc1ccc(N(CC)CC)cc1)c1c(-c2ccccc2)noc1C [Compound 58] as the molecule, how does the activity at 3 µM [1, 3] read?
Its activity at 3 µM is 70.3%.

“N-[4-(Diethylamino)phenyl]-3-methyl-5-(4-methyl-1,2,3-thiadiazol-5-yl)isoxazole-4-carboxamide [Compound 47c]” was tested. Which “effect on BNP promoter activity in cardiomyocytes (in words)” value [2] did it give?
Its value is “increased BNP promoter activity”.

And the GATA.3µM [1, 3]?
The GATA.3µM was 61.94.

And the “GATA4 (% of control) Mean ± SD” value [1]?
Its value is 68 ± 9.1 % of control.

And the GATA.10µM ([1]; 10 µM, luciferase reporter activity relative to control)?
Its GATA.10µM is 68.28.

Which activity at 3 µM [1, 4] does the source give for CCN(CC)c1ccc(NC(=O)c2c(-c3ccccc3)noc2C)cc1 [Compound 1, N-[4-(Diethylamino)phenyl]-5-methyl-3-phenylisoxazole-4-carboxamide] here?
Its activity at 3 µM is 92.1%.
